# Reference: patent publication US20100152210A1, “PURINYL DERIVATIVES AND THEIR USE AS POTASSIUM CHANNEL MODULATORS” (NEURO SEARCH A/S/, priority 2007, published 2010)
# Target: T1, hSK3 channels (Homo sapiens, UniProt Q9UGI6)
# T1 construct: expressed in transfected cells; host or cells: HEK293
# Assay: Whole-cell patch-clamp recording of SK3 current in HEK293 cells expressing hSK3 channels
# Format: cell-based
# Protocol: The ionic current through small-conductance Ca^2+-activated K^+ channels (SK channels, subtype 3) is recorded using the whole-cell configuration of the patch-clamp technique in a classic patch-clamp set-up using HEK293 tissue culture cells expressing hSK3 channels as described in e.g. WO 2006/100212.
# The SC100 value determined is defined as the Stimulating Concentration required for increasing the baseline current by 100%. The below SC100 value is an indication of the SK3 activating properties of the compounds of the invention.
compound,measurement,value
"Cc1cc(C)n(-c2nc(Nc3ccc(Cl)cc3)c3ncn(Cc4ccccc4)c3n2)n1 [Compound 9.1, [9-Benzyl-2-(3,5-dimethyl-pyrazol-1-yl)-9H-purin-6-yl]-(4-chloro-phenyl)-amine]",The SC100 (Stimulating Concentration required for increasing the baseline current by 100%),0.04 µM
